Reference: patent publication US6201116A, “Halide indicators” (The Regents of the University of California, priority 1999, dated 2001)

Columns and labels:
cells [1] = assay: Toxicity in assays of cell growth; assay type: cell-based; settings: 2 mM in culture medium for 72 h
Method: (§1) LZQ and LMQ were loaded into cells efficiently by hypotonic shock or passive incubation. […] As was found for SPQ, LZQ and LMQ were non-toxic to cells in assays of cell growth (2 mM in culture medium for 72 h).

cells [2] = assay: Response of intracellular fluorescence to osmotically-induced changes in cell volume; assay type: cell-based
Method: (§2) Fluorescence microscopy. Fluorescence microscopy measurements were performed as described previously (Chao et al., 1989). Briefly, coverglasses were mounted in a 0.5 ml perfusion chamber in which the cell-free glass surface made contact with an oil immersion objective (Nikon ×40 magnification, numerical aperture[NA] 1.3). Cell fluorescence was excited at 365±10 nm (SPQ) or 420 nm±10 nm (LZQ and LMQ). Emitted fluorescence was detected by a photomultiplier in a Nikon inverted epifluorescence microscope using a 410 nm dichroic mirror and 420 nm barrier filter (SPQ) or a 455 nm dichroic mirror and 500 nm barrier filter (LZQ). For cells colabeled with SPQ and LZQ, SPQ fluorescence was excited at 365±10 nm and detected using a 410 nm dichroic mirror and 455±30 nm interference filter. Confocal fluorescence micrographs were obtained using a Nipkow wheel confocal microscope and cooled CCD camera detector using a ×60 oil immersion objective (Nikon, NA 1.4). LZQ-labeled cells were viewed using a fluorescein filter set (excitation 480±15 nm, emission 520±20 nm).
The similar LZQ lifetime in cells and water predicts that LZQ fluorescence should be relatively insensitive to cell volume in the absence of I^-. […] When cells were exposed to hypoosmotic medium (225 mOsm), SPQ fluorescence increased by 15±2%, whereas LZQ fluorescence increased by only 4±1%.

CFTR = settings: cited from earlier work; for correction of CF phenotype (chemical chaperones): Swiss 3T3, Brown et al., 1996
[3] = Fluorescence spectra / optical properties; assay type: physicochemical; parameters: key to Brightness: ++++: very bright; +++: bright; ++: moderate brightness; +: weak; settings: for Brightness / λem (emission wavelength) / λex (excitation wavelength): Table 4
Method: (§3) Computations. In vitro fluorescence quenching studies were carried out at peak excitation and emission wavelengths. Microliter aliquots of the sodium salt of the quenching anion (1 M) were added to indicator solution in 5 mM sodium phosphate (pH 7.2, unless indicated otherwise). Fluorescence intensities in the absence (Fo) and presence (F) of quencher anion ([Q]) were measured to give the Stem-Volmer constant (Kq) as defined by:
Fluorescence spectra reveal that LZQ and LMQ have broad excitation and emission peaks with maxima at 424 and 528 nm, respectively. The molar extinction coefficient of LZQ was 11,100 M^-1 cm^-1 at 424 nm and the quantum yield in the absence of I^- was 0.53. Stem-Volmer plots for quenching of LZQ and LMQ by I^- and Cl^-, with data for SPQ shown for comparison, were generated. In water (or saline), LZQ fluorescence was quenched by I^- with a Stem-Volmer constant of 60 M^-1. LZQ fluorescence was not quenched (Stem-Volmer constant <1 M^-1) by Cl^-, NO3^-, phosphate, acetate, Na^+ and K^+. LZQ fluorescence and I^- sensitivity were not affected by pH changes in the range 4.5-8.

[4] = In vitro fluorescence quenching by I^- (Stern-Volmer); assay type: physicochemical; settings: Table 4
Method: as §3, with “by: Fo /F=1+Kq [Q].” for “by:”

cells [5] = assay: Photobleaching in cells; assay type: cell-based; settings: Table 4
Method: as §2
(§4) A time course of LZQ fluorescence during perfusion with physiological saline at 23° C. was generated. A small group of 20-30 cells was illuminated continuously and fluorescence was detected by a photomultiplier using an ×40, 1.3 NA objective. Cellular fluorescence decreased slowly at a rate of 2.5% per hour. To determine the relative contributions of indicator leakage vs. photobleaching to the slow decline in fluorescence, the perfused cells were illuminated intermittently. […] Background fluorescence (in non-labeled cells) was generally <5% of the fluorescence of LZQ-labeled cells.

[6] = test system: CFTR-expressing fibroblasts and T84 cells; assay: Cl^-/I^- exchange by LZQ fluorescence, CFTR-expressing cells; assay type: cell-based; settings: solution Cl^- replaced by I^-
Method: as §2, with “LZQ-labeled cells were viewed using a fluorescein filter set (excitation 480±15 nm, emission 520±20 nm).” left out
(§5) Transport measurements. […] For fluorescence microscopy, glass coverslips were then mounted in a perfusion chamber (flow ~2 ml/min) in which solutions were exchanged using a 4-way valve. For microplate reader measurements, cells in 96-well plates were bathed in […] of the `1st buffer` (see Table 3) and […] of the Cl^- -containing, I^- -free solution was injected into the well to drive Cl^- /I^- exchange (protocol 1). […]

control fibroblasts = assay: Cl^-/I^- exchange by LZQ fluorescence, control cells; assay type: cell-based; settings: solution Cl^- replaced by I^-
Method: as §2, with “LZQ-labeled cells were viewed using a fluorescein filter set (excitation 480±15 nm, emission 520±20 nm).” left out
as §5

cells [7] = assay: Cell loading and intracellular distribution (fluorescence/confocal microscopy); assay type: cell-based; settings: for Cellular properties: staining/distribution: Table 4
Method: as §2
Transport measurements. Cells were labeled with LZQ or SPQ by hypotonic shock (loading buffer/water 1:1 containing 2 mM LZQ or 7.5 mM SPQ) for 5 min at room temperature or by overnight incubation with indicators in the cell culture medium. Extracellular indicator was removed by washing just prior to measurements. For fluorescence microscopy, glass coverslips were then mounted in a perfusion chamber (flow ~2 ml/min) in which solutions were exchanged using a 4-way valve. For microplate reader measurements, cells in 96-well plates were bathed in […] of the `1st buffer` (see Table 3) and […] of the Cl^- -containing, I^- -free solution was injected into the well to drive Cl^- /I^- exchange (protocol 1). For stimulation of CFTR using protocol 2, […] of a 1:8 mixture of the 1st buffer and the 2nd buffer containing […] forskolin, 2 mM CPT-cAMP and […] IBMX was added.
as §1

cells [8] = assay: Indicator leakage / cytoplasmic retention; assay type: cell-based; settings: Table 4
Method: as §2, §4

Molecule: COc1ccc2c(ccc[n+]2CCCS(=O)(=O)[O-])c1 [SPQ, 6-methoxy-N-[3-sulfopropyl]quinolinium, reference compound]
- toxicity to cells (cell growth) (cells [1]): non-toxic
- fluorescence increase upon exposure to hypoosmotic medium (cells [2]; 225 mOsm): 15±2%
- fluorescence decrease upon exposure to hyperosmotic medium (cells [2]; 600 mOsm, absence of Cl^-, S.E., n=3): 30±2%

Molecule: CCCC(=O)[O-].[Na+] [sodium butyrate]
- Cl transport, overexpression of ΔF508 (CFTR; CFPAC-1, JME/CF15, 1° culture, Cheng et al., 1995): resulted in detectable Cl

Molecule: O=c1ccc2nc3ccc(O)cc3oc-2c1 [VIII, resorufin, reference compound]
- Brightness [3]: +++
- λem (emission wavelength) [3]: 585 nm
- λex (excitation wavelength) [3]: 571 nm
- Ksv (I^-), Stern Volmer quenching constant [4]: 76 M⁻¹

Molecule: C[N+](C)(C)[O-] [TMAO]
- correction of CF phenotype (chemical chaperones) (CFTR): corrected the CF phenotype

Molecule: Cc1cc2cc3cc(C)c(N)cc3[n+](C)c2cc1N [IX, 10-methyl acridinium yellow]
- Brightness [3]: ++++
- λem (emission wavelength) [3]: 520 nm
- λex (excitation wavelength) [3]: 440 nm
- Ksv (I^-), Stern Volmer quenching constant [4]: 90 M⁻¹
- Cellular properties: photobleaching (cells [5]): very rapid

Molecule: C=C[C@@]1(C)CC(=O)[C@]2(O)[C@@]3(C)[C@@H](O)CCC(C)(C)[C@@H]3[C@H](O)[C@H](OC(C)=O)[C@@]2(C)O1 [forskolin]
- forskolin-stimulated change in LZQ fluorescence [6]: rapid decrease in LZQ fluorescence
- forskolin-stimulated decrease in LZQ fluorescence, control (control fibroblasts): not in control fibroblasts

Molecule: CN(C)c1ccc2cc3ccc(N(C)C)cc3[n+](C)c2c1 [X, 10-methyl acridinium orange]
- Brightness [3]: ++++
- λem (emission wavelength) [3]: 550 nm
- λex (excitation wavelength) [3]: 440 nm
- Ksv (I^-), Stern Volmer quenching constant [4]: 30 M⁻¹
- Cellular properties: photobleaching (cells [5]): very rapid

Molecule: CFTR protein: purified CFTR protein
- Cl transport after transfer of purified protein (CFTR; CHO-CFTR, FRT-CFTR, LLCPK1, Marshall et al., 1994): induced Cl transport

Molecule: N=c1ccc2c(-c3ccccc3C(=O)O)c3ccc(N)cc3oc-2c1 [III, rhodamine-110, reference compound]
- Brightness [3]: ++++
- λem (emission wavelength) [3]: 520 nm
- λex (excitation wavelength) [3]: 496 nm
- Ksv (I^-), Stern Volmer quenching constant [4]: 40 M⁻¹

Molecule: OCC(O)CO [glycerol]
- correction of CF phenotype (chemical chaperones) (CFTR): corrected the CF phenotype

Molecule: CC(C)Cn1c(=O)n(C)c(=O)c2[nH]cnc21 [IBMX, 3-isobutyl-1-methylxanthine]
- effect of increased [IBMX] on ΔF508 response (CFTR; L cells, Yang et al., 1993): improved

Molecule: Nc1c2ccccc2[n+](CCCS(=O)(=O)[O-])c2ccccc12 [XII, 9-amino-10-(3-sulfopropys) acridinium]
- Brightness [3]: +++
- λem (emission wavelength) [3]: 457 nm
- λex (excitation wavelength) [3]: 422 nm
- Ksv (I^-), Stern Volmer quenching constant [4]: 253 M⁻¹
- Cellular properties: staining/distribution (cells [7]): nuclear staining
- Cellular properties: photobleaching (cells [5]): rapid

Molecule: NCCCNCCCCNC(=O)C(O)NC(=O)CCCCCCN=C(N)N (centres unmarked) [Deoxyspergualin]
- restoration of Cl transport (CFTR; C127-CFTR, JME/CF15, IBE-1, Jiang et al., 1998): partially restored

Molecule: C[n+]1c(-c2ccccc2)ccc2cc3ccc(-c4ccccc4)nc3cc21 [Compound VII, 1-methyl-2,7-diphenylpyrido-[3,2,g]quinolinium]
- Brightness [3]: +++
- λem (emission wavelength) [3]: 515 nm
- λex (excitation wavelength) [3]: 405 nm
- Ksv (I^-), Stern Volmer quenching constant [4]: 46 M⁻¹

Molecule: [2H]O[2H] [D2 O]
- correction of CF phenotype (chemical chaperones) (CFTR): corrected the CF phenotype

Molecule: Nc1ccc2nc3ccc(N)cc3[n+](-c3ccccc3)c2c1 [XIII, phenosafranine, reference compound]
- Brightness [3]: ++
- λem (emission wavelength) [3]: 586 nm
- λex (excitation wavelength) [3]: 520 nm
- Ksv (I^-), Stern Volmer quenching constant [4]: 33 M⁻¹

Molecule: Nc1ncnc2c1nc([O-])c1cccc[n+]12 [II]
- emission maximum [3]: 528 nm
- excitation maximum [3]: 424 nm
- Brightness [3]: +++
- λem (emission wavelength) [3]: 530 nm
- λex (excitation wavelength) [3]: 424 nm
- Ksv (I^-), Stern Volmer quenching constant [4]: 70 M⁻¹
- Cellular properties: staining/distribution (cells [7]): staining uniform
- loading into cells (cells [7]; hypotonic shock or passive incubation): efficiently
- Cellular properties: leakage rate (cells [8]): moderate
- Cellular properties: photobleaching (cells [5]): slow photobleaching
- toxicity to cells (cell growth) (cells [1]): non-toxic

Molecule: rhodamine green [IV, reference compound]
- Brightness [3]: ++++
- λem (emission wavelength) [3]: 530 nm
- λex (excitation wavelength) [3]: 505 nm
- Ksv (I^-), Stern Volmer quenching constant [4]: 30 M⁻¹
